Data published in the NIST ThermoML archive (doi:10.1021/je9006597).

Assays:
[1] = xn = mol fraction of the nth substance listed; conditions: 101 kPa, Liquid; for speed of sound: Pulse-echo method
[2] = 101 kPa, Liquid; for speed of sound: Pulse-echo method

CCCCCCC [heptane] + COC(=O)c1ccccc1
[1], x2 = 0
Conditions	mass density [kg/m3]	speed of sound [m/s]	viscosity [mPa·s]
303.15 K	674.5	1116	0.375
308.15 K	670.3	1092	0.35
313.15 K	667.2	1072	0.325

COC(=O)c1ccccc1 [methyl benzoate] + CCCCCCC
[1]
Conditions	mass density, 303.15 K [kg/m3]	mass density, 308.15 K [kg/m3]	mass density, 313.15 K [kg/m3]	speed of sound, 303.15 K [m/s]	speed of sound, 308.15 K [m/s]	speed of sound, 313.15 K [m/s]	viscosity, 303.15 K [mPa·s]	viscosity, 308.15 K [mPa·s]	viscosity, 313.15 K [mPa·s]
x1 = 0.1154	715.5	711.3	708.1	1128	1108	1088	0.413	0.38	0.35
x1 = 0.2273	756.4	752.4	749.1	1148	1128	1108	0.467	0.43	0.401
x1 = 0.335	797.1	793.1	789.8	1168	1148	1128	0.533	0.494	0.458
x1 = 0.439	837.7	833.9	830.5	1192	1172	1152	0.627	0.575	0.529
x1 = 0.5404	878.6	874.8	871.3	1220	1196	1180	0.723	0.666	0.615
x1 = 0.6365	918.3	914.7	911.1	1248	1228	1212	0.84	0.781	0.728
x1 = 0.7324	959	955.3	951.7	1276	1260	1248	0.99	0.904	0.849
x1 = 0.8252	999.4	995.7	992.1	1308	1296	1284	1.172	1.068	0.982
x1 = 0.9133	1038.7	1034.8	1030.9	1348	1336	1324	1.404	1.284	1.15
x1 = 1	1078.3	1074.4	1070.3	1380	1364	1348	1.667	1.514	1.376

CCCCCC [hexane] + COC(=O)c1ccccc1
[1], x2 = 0
Conditions	mass density [kg/m3]	speed of sound [m/s]	viscosity [mPa·s]
303.15 K	649.8	1048	0.283
308.15 K	645.9	1028	0.269
313.15 K	642.2	1008	0.252

C1CCCCC1 [cyclohexane] + COC(=O)c1ccccc1
[1], x2 = 0
Conditions	mass density [kg/m3]	speed of sound [m/s]	viscosity [mPa·s]
303.15 K	768.3	1228	0.823
308.15 K	764.4	1208	0.772
313.15 K	760.5	1188	0.685

CCCCCCCC [octane] + COC(=O)c1ccccc1
[1], x2 = 0
Conditions	mass density [kg/m3]	speed of sound [m/s]	viscosity [mPa·s]
303.15 K	693.9	1148	0.491
308.15 K	690.4	1132	0.45
313.15 K	687	1112	0.415

C1CCCCC1 [cyclohexane]
[2]
Conditions	mass density [kg/m3]	speed of sound [m/s]	viscosity [mPa·s]
303.15 K	768.3	1228	0.823
308.15 K	764.4	1208	0.772
313.15 K	760.5	1188	0.685

COC(=O)c1ccccc1 [methyl benzoate] + C1CCCCC1
[1]
Conditions	mass density, 303.15 K [kg/m3]	mass density, 308.15 K [kg/m3]	mass density, 313.15 K [kg/m3]	speed of sound, 303.15 K [m/s]	speed of sound, 308.15 K [m/s]	speed of sound, 313.15 K [m/s]	viscosity, 303.15 K [mPa·s]	viscosity, 308.15 K [mPa·s]	viscosity, 313.15 K [mPa·s]
x1 = 0.088	796.9	793	789.1	1240	1220	1200	0.802	0.74	0.675
x1 = 0.1777	825.9	822.1	818.2	1252	1232	1212	0.82	0.757	0.704
x1 = 0.2692	855.8	851.9	848.1	1264	1244	1224	0.854	0.792	0.736
x1 = 0.3668	887.5	883.6	879.7	1276	1260	1240	0.905	0.84	0.781
x1 = 0.4667	918.8	915	911.1	1292	1276	1256	0.977	0.904	0.835
x1 = 0.5639	950	946.1	942.2	1308	1292	1276	1.076	0.999	0.932
x1 = 0.6675	981.7	978	974.1	1324	1308	1292	1.181	1.09	1.004
x1 = 0.7727	1013.3	1009.5	1005.5	1340	1324	1312	1.308	1.197	1.097
x1 = 0.8859	1046.1	1042.2	1038.3	1360	1344	1332	1.478	1.363	1.234
x1 = 1	1078.3	1074.4	1070.3	1380	1364	1348	1.667	1.514	1.376
